# In US20230167101A1, “NOVEL INHIBITORS OF HISTONE […] P300/CBP FOR CANCER THERAPY” (BAYLOR COLLEGE OF MEDICINE, priority 2020, published 2023):
# Target: T1, HAT domain of human p300 (Homo sapiens, UniProt Q09472)
# T1 construct: The HAT domain (1195-1673) of human p300 was cloned, inserted into pGEX-KG vector; made in house; host or cells: E. coli BL21-CodonPlus
# T1 sequence (Q09472 1195-1673): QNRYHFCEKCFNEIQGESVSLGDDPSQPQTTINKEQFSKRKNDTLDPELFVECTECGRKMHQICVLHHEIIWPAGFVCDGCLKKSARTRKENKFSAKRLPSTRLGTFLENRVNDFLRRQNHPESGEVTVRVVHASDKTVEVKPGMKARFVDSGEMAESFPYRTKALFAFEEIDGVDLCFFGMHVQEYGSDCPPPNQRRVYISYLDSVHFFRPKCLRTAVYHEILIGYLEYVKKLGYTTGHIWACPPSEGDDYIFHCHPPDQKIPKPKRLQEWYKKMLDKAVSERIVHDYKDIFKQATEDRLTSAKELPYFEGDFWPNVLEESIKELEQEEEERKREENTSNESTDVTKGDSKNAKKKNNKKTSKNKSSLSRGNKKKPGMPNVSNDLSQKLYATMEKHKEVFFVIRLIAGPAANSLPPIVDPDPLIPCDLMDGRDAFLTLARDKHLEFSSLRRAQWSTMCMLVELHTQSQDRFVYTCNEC
# Test: p300 HAT inhibition assay (3H-Ac-CoA, histone H3 (1-21) peptide)
# Format: biochemical
# Settings: not given
# Procedure: A biochemical assay to determine the activity and inhibition of recombinant HAT domain of human p300 was developed, using the substrate histone H3 (1-21) peptide and the ^3H-labeled cofactor Ac—CoA.
# The HAT domain (1195-1673) of human p300 was cloned, inserted into pGEX-KG vector and the DNA sequence was verified by sequencing. The p300-HAT expression plasmid was transformed into E. coli BL21-CodonPlus strain (Agilent) and cultured at 37° C. in LB medium containing ampicillin (50 µg/mL) and chloramphenicol (34 µg/mL). After the optical density of the bacterial culture reached ~0.9 at 600 nm, p300 HAT expression was induced by adding 300 µM isopropylthiogalactoside (IPTG) at 18° C. for 48 hours. Cells were collected, lysed, centrifuged for 20 min at 20,000 rpm. The supernatant was subjected to column chromatography with glutathione sepharose resins. […] CBP, PCAF and Myst3 HATs were obtained using similar methods.
# To determine inhibitory activity, a compound with concentrations ranging from 100 nM to 10 µM was incubated with p300-HAT (10 nM) in 20 µL of 50 mM phosphate buffer (pH = 7.0) containing 0.01% Brij-35 for 10 min at 25° C. […] After 30 min at 25° C., the reaction was stopped by adding 6 N formic acid (5 µL). 20 µL of reaction mixture was then transferred to a small piece of P81 filter paper (Whatman) that binds histone H3 peptide. The filter paper was washed 3x with 50 mM NaHCO3, dried, and transferred into a scintillation vial containing 2 mL of scintillation cocktail. Radioactivity on the filter paper was measured with a Beckman LS-6500 scintillation counter. IC50 values were obtained by using a standard sigmoidal dose response curve fitting in Prism (version 5.0, GraphPad Software, Inc., La Jolla, CA). IC50 values were the mean values from at least three experiments.
row,inhibitory activity against p300 HAT (in words),Compound
1,Loss of activity,CCCCc1ccc(-c2cc(CNCC3CCNCC3)sc2-c2ccc(CCCC)cc2)cc1 [Compound 23]
2,complete loss of inhibitory activity,CC(C)(C)c1ccc(-c2cc(COCC3CCNCC3)sc2-c2ccc(C(C)(C)C)cc2)cc1 [Compound 13]

# Same assay, conditions: p300 HAT
row,Compound,activity reduction relative to compound 12
1,CC(C)c1ccc(-c2cc(CNCC3CCNCC3)sc2-c2ccc(C(C)C)cc2)cc1 [Compound 22],~ 8 x
2,CC(C)(C)c1ccc(-c2cc(CNCCC3CCNCC3)sc2-c2ccc(C(C)(C)C)cc2)cc1 [Compound 15],~3 fold

# Same assay, conditions: read-out: IC50 against p300 HAT
row,Compound,IC50 [µM]
1,CC(C)c1ccc(-c2cc(CNCC3CCNCC3)sc2-c2ccc(C(C)C)cc2)cc1 [Compound 22],5.4
2,c1cc(-c2ccc(-c3cc(CNCC4CCNCC4)sc3-c3ccc(-c4ccoc4)cc3)cc2)co1 [Compound 11],1.7
3,CC(C)(C)c1ccc(-c2cc(CNCCC3CCNCC3)sc2-c2ccc(C(C)(C)C)cc2)cc1 [Compound 15],2.2
4,CC(C)(C)c1ccc(-c2cc(CNCCCN)sc2-c2ccc(C(C)(C)C)cc2)cc1 [Compound 16],3
5,CC(C)(C)c1ccc(-c2cc(C(=O)NCC3CCNCC3)sc2-c2ccc(C(C)(C)C)cc2)cc1 [Compound 1],8.6
6,CC(C)(C)c1ccc(-c2cc(CNCC3CCNCC3)oc2-c2ccc(C(C)(C)C)cc2)cc1 [Compound 34],9.8
7,CN(Cc1cc(-c2ccc(C(C)(C)C)cc2)c(-c2ccc(C(C)(C)C)cc2)s1)CC1CCNCC1 [Compound 20],4.4
8,CC(C)(C)c1ccc(-c2cc(CN(C=O)CC3CCNCC3)sc2-c2ccc(C(C)(C)C)cc2)cc1 [Compound 21],7

# Tested on: Kasumi-1 leukemia cells
# Test: Cellular histone acetylation, Western blot
# Format: cell-based
# Settings: Kasumi-1 cells, 12 h, 5 and 10 µM
# Procedure: Kasumi-1 leukemia cells were treated with increasing concentrations of these compounds for 12 h. Histone was extracted and subjected to electrophoresis separation and Western blot staining to determine levels of acetylation at various lysine residues. […] H3K27 seems to be the most sensitive cellular substrate of p300 HAT. […] This might be due to different mode of inhibition or cell permeability for the two compounds.
# About 10^6 Kasumi-1 cells per well were incubated with compound 11 at 0, 5 and 10 µM for 12 hours. Histone proteins were extracted using EpiQuik total histone extraction kit (Epigentek), according to the manufacturer’s protocol. Equal amounts of histones (2 µg) were separated on SDS-PAGE and transferred to PVDF membranes. The blots were probed with primary antibodies against H3K9Ac, H3K18Ac, H3K27Ac and H3 (Cell Signaling), followed by anti-rabbit IgG (Thermo Scientific) secondary antibodies.
row,Compound,"cellular acetylation of histone H3K9, H3K18 and H3K27"
1,"CC1=NN(c2ccc(C(=O)O)cc2)C(=O)/C1=C\c1ccc(-c2cc(C)c(C)cc2[N+](=O)[O-])o1 [Compound C646, reference compound]",inhibited
